Data set [1] concerns HBV. The data set can be described thus: AAV/HBV mouse model: HBV-DNA levels in serum (qPCR). It is filed as in vivo, C57BL/6 mice. The text has this:
(§1) The AAV-HBV mouse model is generated by injecting C57BL/6 mice with recombinant adeno-associated virus harboring a replicable HBV genome (AAV-HBV). The rAAV8-1.3 HBV ayw virus stock was purchased from Beijing FivePlus Molecular Medicine Institute (Beijing, China).
The animals (male, aged 4-5 weeks upon arrival) were purchased from SLAC Laboratory Animal Co. Ltd (Shanghai, China), acclimatized in the animal facility for 5-7 days, and then injected with 1×10^11 vector genome of AAV-HBV (diluted in 200 μL of PBS) through the tail vein. Persistence expression of HBV genome can be established after three weeks, with high levels of HBV viral markers including HBV DNA, HBsAg, and HBeAg in mouse serum. […]
Quantification of extracted HBV DNA was performed using a Taqman qPCR machine (ViiA7, life technologies). […] DNA copy numbers were calculated from Ct values based on a HBV plasmid DNA standard curve by the ViiA7 software.
To evaluate the combination of the anti-HBV ASO and the TLR7 agonist in an in vivo system, a mouse model of chronic HBV infection was used. […] The effect on these viral markers upon treatment with the anti-HBV ASO of CMP ID NO: 15_1 (table 2, and FIG. 4) dosed at 1.5 mg/kg or 7.5 mg/kg and the TLR7 agonist of CMP ID NO: VI (table 3) dosed with […] every other day (QOD) or once weekly (QW) in monotherapy or in combination has been evaluated.

Data set [2] relates to HBV. Put plainly: AAV/HBV mouse model: HBsAg levels in serum (CLIA). Also noted: HBsAg levels in serum, Average ± SD: unit not given here. The class given is in vivo, C57BL/6 mice. The following applies: for HBsAg levels in serum, Average ± SD: AAV/HBV mice, anti-HBV ASO 7.5 mg/kg weekly, TLR7 100 mg/kg weekly (QW).
Text: as §1
The animals (male, aged 4-5 weeks upon arrival) were purchased from SLAC Laboratory Animal Co. Ltd (Shanghai, China), acclimatized in the animal facility for 5-7 days, and then injected with 1×10^11 vector genome of AAV-HBV (diluted in 200 μL of PBS) through the tail vein. Persistence expression of HBV genome can be established after three weeks, with high levels of HBV viral markers including HBV DNA, HBsAg, and HBeAg in mouse serum. With stable HBV viremia and competent immune system of the C57BL/6 mice, the AAV-HBV mouse model was used to evaluate the in vivo anti-HBV efficacy of the compounds. The in-life part of the AAV-HBV study was conducted through contracted service at Covance Pharmaceutical Research and Development (Shanghai) Co. Ltd. (Covance Shanghai) and the post-life analysis using the serum was performed internally at Roche Innovation Center Shanghai (RICS).
Seven days before compound treatment, blood samples were collected for serum preparation (˜15 μL), and based on HBV DNA, HBsAg levels in serum and body weight, the AAV-HBV infected animals were stratified into the different treatment groups.
Saline (Group 01) and anti-HBV ASO of CMP ID NO: 15_1 at 1.5 or 7.5 mg/kg were dosed sub subcutaneously once a week during Day 0-49 on Days 0, 7, 14, 21, 28, 35, 42 and 49. TLR7 agonist of CMP ID NO: VI 100 mg/kg was administered by oral gavage once every other day during Day 0-55 (QOD) or once weekly during Day 0-49 on Days 0, 7, 14, 21, 28, 35, 42 and 49 (QW). The animals were weekly bled via retro-orbital sinus for sample collection throughout the study. • Oligonucleotide Synthesis
Serum HBsAg levels were determined in the serum of infected AAV-HBV mouse using the HBsAg chemoluminescence immunoassay (CLIA) (Autobio diagnostics Co. Ltd., Zhengzhou, China, Cat. no.CL0310-2), according to the manufacturer's protocol. Briefly, 50μl of serum was transferred to the antibody coated microtiter plate and 50 μl of enzyme conjugate reagent was added. The plate was incubated for 60 min on a shaker at room temperature before all wells were washed six times with washing buffer using an automatic washer. 25 μl of substrate A and then 25 μl of substrate B was added to each well. The plate was incubated for 10 min at RT before luminescence was measured using an Envision luminescence reader (Perkin Elmer). HBsAg is given in the unit IU/ml; where 1 ng HBsAg=1.14 IU.
To evaluate the combination of the anti-HBV ASO and the TLR7 agonist in an in vivo system, a mouse model of chronic HBV infection was used. In the AAV/HBV mouse model described in the Materials and Method a persistent HBV infection is established resulting in expression of viral markers (HBsAg, HBeAg, HBV DNA) detectable in plasma. The effect on these viral markers upon treatment with the anti-HBV ASO of CMP ID NO: 15_1 (table 2, and FIG. 4) dosed at 1.5 mg/kg or 7.5 mg/kg and the TLR7 agonist of CMP ID NO: VI (table 3) dosed with […] every other day (QOD) or once weekly (QW) in monotherapy or in combination has been evaluated.

Data set [3] deals with HBV. The data set can be described thus: AAV-HBV mouse model, single dose siRNA vs ASO: serum HBsAg. The class given is in vivo, C57BL/6 mice. Particulars: 6.6 mg/kg single subcutaneous injection Day 0. The protocol: The purpose of this study was to evaluate the in vivo pharmacology and efficacy of certain compounds in AAV-HBV mouse model.
Recombinant adeno-associated virus (AAV) carrying the Hepatitis B Virus (HBV) genome rAAV8-1.3HBV ayw (Lot No: 2019032703) was purchased from Beijing FivePlus Molecular Medicine Institute, and stored at −70° C. before use.
One hundred and fifteen (115) male C57BL/6 mice were obtained. On Pre-dose Day 0, all the animals were subjected to injection through tail vein with 1×10^11 vector genome of AAV-HBV for model induction. Based on baseline serum viral markers and body weight on Pre-dose Day 24, 80 qualified HBV-infected mice were selected.
The 80 selected mice were randomized into 4 groups for compound treatment. Sterile water, DCR-AUD1, DCR-5219 (9 mg/kg), and CMP ID NO: 15_1 (6.6 mg/kg) were subcutaneously injected once at 5 mL/kg on Day 0. The dosing volume was […].
Whole blood was collected to prepare serum (15 μL per mouse) twice weekly during Day 0˜21. On Day 21, the mice were euthanized. […]
Baseline serum levels of HBsAg were determined by ARCHITECT i2000 (Abbott Laboratories, Lake Bluff, IL, USA) and supporting reagents. Baseline serum HBV DNA level was measured by using ABI7500 (Applied Biosystems, Foster City, Calif., USA) and detection kit (Sansure Biotech Inc., Changsha, Hunan, China).

Data set [4] has as its system HBV. The data set can be described thus: Entecavir combination study in HBV-expressing mouse (HDI model). It is filed as in vivo. The following applies: HDI mice; monotherapy. The protocol:
The RNAi oligonucleotides targeting the S antigen impact both the viral polymerase and HBsAg protein. In this study, the combinational effects of HBV(s)-219P2 as a monotherapy and combinational treatment with entecavir was explored in an HBV-expressing mouse (HDI model) for antiviral activity.
Mice were administered daily oral dosing of 500 ng/kg Entecavir (ETV) for 14 days. A single subcutaneous administration of HBV(s)-219P2 took place. Circulating viral load (HBV DNA) was measured by qPCR (FIG. 25A), plasma HBsAg level was measured by ELISA (FIG. 25B), and liver HBV mRNA and pgRNA levels were measured by qPCR.

A further data set has as its system HBsAg. Here is the method:
Preclinical potency was further evaluated in mice following a QW×3 dosing regimen in which HBV-254 was subcutaneously administered at 3 mg/kg (FIG. 23). The administration points are indicated by arrows in the figure. HBsAg levels were monitored in both oligonucleotide treated and untreated control mice for a period spanning 147 days.
Each oligonucleotide, including HBV-254, was evaluated at three concentrations (1, 10, and 100 pM) in HeLa cells using the fluorescence-based reporter assay.

For “5′-GN2-C6ocoaoGs^mCsGstsasasasgsasgsasGsG-3′ [CMP ID NO: 15_1]”, the “reduction in HBV-DNA” value with HBV [1] (monotherapy at both 1.5 mg/kg and 7.5 mg/kg) was “rapid reduction in HBV-DNA to below the lower level of quantification”. The “HBsAg levels in serum, Average ± SD” value stood at 4.30 ± 0.30 in the data set with HBV [2] (D 0); 1.71 ± 0.24 with HBV [2] (D 7); 1.83 ± 0.21 in the data set with HBV [2] (D 14); 1.43 ± 0.17 with HBV [2] (D 21); 1.30 ± 0.19 in the data set with HBV [2] (D 28); 1.36 ± 0.26 in the data set on HBV [2] (D 35). Besides, the “HBsAg levels in serum, Average ± SD” value with HBV [2] (D 42) was found to be 1.30 ± 0.16; in the data set on HBV [2] (D 49) it was 1.56 ± 0.16; with HBV [2] (D 56), 1.32 ± 0.24; with HBV [2] (D 63) it was 1.33 ± 0.47; in the data set on HBV [2] (D 70), 2.18 ± 0.91; with HBV [2] (D 77), 2.70 ± 0.85. In addition, the “HBsAg levels in serum, Average ± SD” value is reported as 3.17 ± 0.60 in the data set with HBV [2] (D 84); 3.82 ± 0.38 in the data set with HBV [2] (D 91); 3.64 ± 0.81 with HBV [2] (D 98); 3.61 ± 0.97 with HBV [2] (D 105); 3.40 ± 1.49 in the data set on HBV [2] (D 111). For the same molecule, in the data set on HBV [2] (anti-HBV ASO 1.5 mg/kg monotherapy), the “suppression of HBsAg below the detection limit” value is recorded as “not capable of suppressing HBsAg to a level below the detection limit”. In addition, in the data set with HBV [3], the “time until which decrease in HBsAg was maintained before rebound” value was “about 10 days”. The “HBsAg level over time” value in the data set on HBV [3] (21 days) was “rapid decrease in HBsAg level”.
Take `CC[C@H](OC(C)=O)[C@@H]1C[C@@H](O)[C@H](n2c(=O)sc3cnc(N)nc32)O1` [CMP ID NO: VI, [(1S)-1-[(2S,4R,5R)-5-(5-amino-2-oxo-thiazolo[4,5-d]pyrimidin-3-yl)-4-hydroxy-tetrahydrofuran-2-yl]propyl] acetate]: in the data set on HBV [1] (TLR7 agonist monotherapy, QOD or QW), the “HBV DNA rebound, distance from control group during follow-up” value was at most 1 log. Besides, the “day of lowest HBsAg” value with HBV [2] (TLR7 agonist alone (FIG. 10A)) turned out to be 42 days.
For `C=C1[C@H](CO)[C@@H](O)C[C@@H]1n1cnc2c(=O)[nH]c(N)nc21` [entecavir, Entecavir], in the data set on HBV [4], the “circulating HBsAg” value is listed as “No significant decrease” and the “hepatic viral RNAs” value is given as “No significant decrease”.
“HBV-254: HBsAg-targeting duplex oligonucleotide, sense SEQ ID NO: 55, antisense SEQ ID NO: 56 (sense GUGGUGGACUUCUCUCAAUAGCAGCCGAAAGGCUGC; antisense UAUUGAGAGAAGUCCACCACGG; chemistry not given here)”: the HBsAg levels entry in the data set on HBsAg (HDI-mice, single subcutaneous dose, increasing dosage) is reported as “systematically reduced HBsAg levels in mice with increasing dosage”. Also, the “HBsAg levels relative to control” value in the data set on HBsAg (mice, QW×3, 3 mg/kg subcutaneous, monitored 147 days) was “Diminished HBsAg levels persisted in treated mice throughout the entirety of the study”.

The record behind these values is patent US20230119360A1, “PHARMACEUTICAL COMBINATION OF A THERAPEUTIC OLIGONUCLEOTIDE TARGETING HBV AND A TLR7 AGONIST FOR TREATMENT OF HBV” (priority 2019, published 2023).
